The target in the test is T1, ITK (Homo sapiens, UniProt Q08881).
T1 sequence (Q08881 1-620): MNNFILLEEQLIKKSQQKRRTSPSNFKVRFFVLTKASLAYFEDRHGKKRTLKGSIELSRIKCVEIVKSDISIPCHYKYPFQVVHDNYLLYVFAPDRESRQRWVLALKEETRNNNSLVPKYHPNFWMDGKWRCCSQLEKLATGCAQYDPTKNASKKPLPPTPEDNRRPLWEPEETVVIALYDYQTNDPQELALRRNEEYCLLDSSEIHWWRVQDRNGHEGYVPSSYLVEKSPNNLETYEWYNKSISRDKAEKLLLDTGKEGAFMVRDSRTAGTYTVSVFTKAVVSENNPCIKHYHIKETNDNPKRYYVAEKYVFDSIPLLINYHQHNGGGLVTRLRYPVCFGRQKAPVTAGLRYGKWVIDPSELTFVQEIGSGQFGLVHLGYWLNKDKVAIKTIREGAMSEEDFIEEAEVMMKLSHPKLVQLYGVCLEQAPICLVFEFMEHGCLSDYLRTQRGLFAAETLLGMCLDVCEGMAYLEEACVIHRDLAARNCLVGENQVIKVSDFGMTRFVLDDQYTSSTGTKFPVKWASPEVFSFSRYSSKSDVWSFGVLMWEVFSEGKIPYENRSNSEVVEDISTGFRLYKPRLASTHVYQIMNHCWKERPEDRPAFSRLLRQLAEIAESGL
Nature of the test: ITK degradation MSD (Meso Scale Discovery) assay. It is filed as cell-based. On the set-up: either human Jurkat (Clone E6-1 ATCC TIB-152) or Motl4 (ATCC CRL-1552), were plated; endogenous in cells; host or cells: Jurkat clone E6-1 (ATCC TIB-152) or Molt4 (ATCC CRL-1552). The following applies: Jurkat or Molt4 cells, 4 or 6 hrs. On the procedure: ITK Degradation MSD (Meso Scale Discovery) Assay Compound dilution series (7-point, 5 fold dilutions in DMSO, rows B-H with replicate in Column 1⁄2, 3⁄4, 5⁄6, 7,8, at 2000× the final required concentrations were prepared in 96 well plates (Falcon, cat. no. 353077). Row A, Column 1-8 were control DMSO. The 2000× solutions ranged from 2 mM to 128 nM (final assay concentration range 1 μM to […]). The 2000× solutions were added to cells in […], for a final DMSO concentration of 0.5% and final assay compound concentration of 1×. For the cells, either human Jurkat (Clone E6-1 ATCC TIB-152) or Motl4 (ATCC CRL-1552), were plated at 1×10^6 cells/mL, 100 μL/well ([…]) in complete RPMI (10% FBS, 1% L-glutamine). Cells were incubated for 4 or 6 hrs at 32° C./6% CO2. Following incubation, plates were centrifuged at 1200 rpm for 5 min. supernatant was removed and 50 μL of cell lysis buffer ((MSD Tris lysis buffer (R60TX), Complete Mini EDTA-free protease inhibitor (Sigma 11836170001), Protease Inhibitor Cocktail (Sigma, P2714), Phosphatase Inhibitor Cocktail 2 and 3 (Sigma, P5726 and P0044), and Benzonase (Sigma, E1014)) was added to each well. Plates were sealed and shook at 4° C. for 30 min. Plates were centrifuged and 45 μL was removed for plate assays. Assay plate preparation: Meso Scale Discovery (MSD) multi-array sm spot 96 well plates (Goat anti-Rabbit L^45-RA), were blocked with 3% BSA blocking buffer (3% Bovine Serum Albumin (Sigma A3059)+TBS 0.2% Tween-20) for 1 hr with gentle rocking at room temperature. Plates were then washed with 200 μL of 1× TBST (TBS 0.2% Tween-20) 3 times. After last wash, liquid was removed and 50 μL per well of capture antibody (abcam ITK Y402-ab32507) was added to plates at a 1:1000 dilution in blocking buffer (above). Plates were sealed and rocked at room temperature for 2 hrs. Plates were then washed 3 times with 200 μL of 1× TBST. After last wash, liquid was removed and 45 μL of cell lysate (from above) was added to each plate. Plates were sealed and rocked overnight at 4° C. Next day, cell lysates were removed, and assay plates were washed 3 times with 200 μL of 1× TBST. After last wash, liquid was removed and detection antibody (CST ITK (2F12) #2380) was added at 50 μL per well at a dilution of 1:1000 in blocking buffer. Plates were sealed and rocked at room temperature for 2 hrs. Plates were washed 3 times with 200 uL of 1× TBST. After last wash, liquid was removed, MSD Mouse anti-Rabbit sulfo tag (R32AC-1) was diluted to 1:1000 in blocking buffer. 50 μL was added to each well on the plate. Plates were sealed and incubated at room temperature for 1 hr. Plates were washed 3 times with 200 μL of 1× TBST. After last wash, liquid was removed and 150 μL of 1× MSD Read Buffer T ([…]) was then added to each well for ECL read out. For reading ECL signal, plate is read on a Meso Scale Discovery (MSD) MESO Sector S 600 plate reader. Percent ITK in then calculated as described below. Percent ITK remaining per sample was calculated as follows: [formula] Using Graphpad Prism, % ITK remaining values were plotted as a function of compound concentration. To determine DC50 and Dmax values, resulting curves were fit to the Prism curve-fitting equation “log(inhibitor) vs response-Variable slope (four parameters)” (reported best fit value IC50 used as DC50).

With `C[C@@]12Cc3[nH]nc(C(=O)Nc4cnn([C@H](c5ccccc5)C5CN(C(=O)CCOCCNc6cccc7c6C(=O)N(C6CCC(=O)NC6=O)C7=O)C5)c4)c3C[C@@H]1C2(F)F` (stereo partly drawn) [Compound 27, (4aS,5aR)-N-(1-((1S)-(1-(3-(2-((2-(2,6-dioxopiperidin-3-yl)-1,3-dioxoisoindolin-4-yl)amino)ethoxy)propanoyl)azetidin-3-yl)(phenyl)methyl)-1H-pyrazol-4-yl)-5,5-difluoro-5a-methyl-1,4,4a,5,5a,6-hexahydrocyclopropafindazole-3-carboxamide], it took 3.8 nM to reach half-maximal degradation (DC50) and the Dmax – broadly, the largest share of the target that was removed – amounted to 92%.
In the case of `C[C@@]12Cc3[nH]nc(C(=O)Nc4cnn([C@H](c5ccccc5)C5CN(C(=O)CCOCCOCCOCCNc6cccc7c6C(=O)N(C6CCC(=O)NC6=O)C7=O)C5)c4)c3C[C@@H]1C2(F)F` (stereo partly drawn) [Compound 28, (4aS,5aR)-N-(1-((1S)-(1-(3-(2-(2-(2-((2-(2,6-dioxopiperidin-3-yl)-1,3-dioxoisoindolin-4-yl)amino)ethoxy)ethoxy)ethoxy)propanoyl)azetidin-3-yl)(phenyl)methyl)-1H-pyrazol-4-yl)-5,5-difluoro-5a-methyl-1,4,4a,5,5a,6-hexahydrocyclopropa[f]indazole-3-carboxamide], half-maximal degradation (DC50) was put at 3.9 nM and the Dmax came to 94%.
In the same order, the values of `C[C@@]12Cc3[nH]nc(C(=O)Nc4cnn([C@H](c5ccccc5)C5CN(C(=O)CCOCCOCCOCCOCCOCCNc6cccc7c6C(=O)N(C6CCC(=O)NC6=O)C7=O)C5)c4)c3C[C@@H]1C2(F)F` (stereo partly drawn) [Compound 29, (4aS,5aR)-N-(1-((1S)-(1-(1-((2-(2,6-dioxopiperidin-3-yl)-1,3-dioxoisoindolin-4-yl)amino)-3,6,9,12,15-pentaoxaoctadecan-18-oyl)azetidin-3-yl)(phenyl)methyl)-1H-pyrazol-4-yl)-5,5-difluoro-5a-methyl-1,4,4a,5,5a,6-hexahydrocyclopropa[f]indazole-3-carboxamide] are 21 nM and 95%.
Turning to `C[C@@]12Cc3[nH]nc(C(=O)Nc4cnn([C@H](c5ccccc5)C5CN(C(=O)CCOCCOCCOCCOCCOCCOCCOCCOCCNc6cccc7c6C(=O)N(C6CCC(=O)NC6=O)C7=O)C5)c4)c3C[C@@H]1C2(F)F` (stereo partly drawn) [Compound 30, (4aS,5aR)-N-(1-((1S)-(1-(1-((2-(2,6-dioxopiperidin-3-yl)-1,3-dioxoisoindolin-4-yl)amino)-3,6,9,12,15,18,21,24-octaoxaheptacosan-27-oyl)azetidin-3-yl)(phenyl)methyl)-1H-pyrazol-4-yl)-5,5-difluoro-5a-methyl-1,4,4a,5,5a,6-hexahydrocyclopropa[f]indazole-3-carboxamide], half-maximal degradation (DC50) was put at 20 nM and the Dmax worked out at 92%.
In the case of `C[C@@]12Cc3[nH]nc(C(=O)Nc4cnn([C@H](c5ccccc5)C5CN(CCOCCOCCOCCOCCOCCNc6cccc7c6C(=O)N(C6CCC(=O)NC6=O)C7=O)C5)c4)c3C[C@@H]1C2(F)F` (stereo partly drawn) [Compound 31, (4aS,5aR)-N-(1-((1S)-(1-(17-((2-(2,6-dioxopiperidin-3-yl)-1,3-dioxoisoindolin-4-yl)amino)-3,6,9,12,15-pentaoxaheptadecyl)azetidin-3-yl)(phenyl)methyl)-1H-pyrazol-4-yl)-5,5-difluoro-5a-methyl-1,4,4a,5,5a,6-hexahydrocyclopropa[f]indazole-3-carboxamide], it took 44 nM to reach half-maximal degradation (DC50) and the Dmax stood at 95%.
For the compound `C[C@@]12Cc3[nH]nc(C(=O)Nc4cnn([C@H](c5ccccc5)C5CN(C(=O)CCCCc6cccc7c6CN(C6CCC(=O)NC6=O)C7=O)C5)c4)c3C[C@@H]1C2(F)F` (stereo partly drawn) [Compound 32, (4aS,5aR)-N-(1-((1S)-(1-(5-(2-(2,6-dioxopiperidin-3-yl)-1-oxoisoindolin-4-yl)pentanoyl)azetidin-3-yl)(phenyl)methyl)-1H-pyrazol-4-yl)-5,5-difluoro-5a-methyl-1,4,4a,5,5a,6-hexahydrocyclopropa[f]indazole-3-carboxamide], the DC50 – broadly, the concentration giving 50% degradation – was 25 nM and the Dmax stood at 69%.
The matching figures for `C[C@@]12Cc3[nH]nc(C(=O)Nc4cnn([C@H](c5ccccc5)C5CN(C(=O)C6CN(C7CCN(c8ccc(NC9CCC(=O)NC9=O)cn8)CC7)C6)C5)c4)c3C[C@@H]1C2(F)F` (stereo partly drawn) [Compound 36, (4aS,5aR)-N-(1-((1S)-(1-(1-(1-(5-((2,6-dioxopiperidin-3-yl)amino)pyridin-2-yl)piperidin-4-yl)azetidine-3-carbonyl)azetidin-3-yl)(phenyl)methyl)-1H-pyrazol-4-yl)-5,5-difluoro-5a-methyl-1,4,4a,5,5a,6-hexahydrocyclopropa[f]indazole-3-carboxamide]: 1.6 nM and 72%.
In the same order, the values of `CC(C1CN(C(=O)C2CN(C3CCN(c4ccc5c(c4)C(=O)N(C4CCC(=O)NC4=O)C5=O)CC3)C2)C1)n1cc(NC(=O)c2n[nH]c3c2C[C@@H]2C(F)(F)[C@]2(C)C3)cn1` (stereo partly drawn) [Compound 39, (4aS,5aR)-N-(1-(1-(1-(1-(1-(2-(2,6-dioxopiperidin-3-yl)-1,3-dioxoisoindolin-5-yl)piperidin-4-yl)azetidine-3-carbonyl)azetidin-3-yl)ethyl)-1H-pyrazol-4-yl)-5,5-difluoro-5a-methyl-1,4,4a,5,5a,6-hexahydrocyclopropa[f]indazole-3-carboxamide] are 0.88 nM and 94%.
Consider `C[C@@]12Cc3[nH]nc(C(=O)Nc4cnn([C@H](c5ccccc5)C5CN(CC6CN(c7ccc8c(c7)C(=O)N(C7CCC(=O)NC7=O)C8=O)CCO6)C5)c4)c3C[C@@H]1C2(F)F` (stereo partly drawn) [Compound 41, (4aS,5aR)-N-(1-((1S)-(1-((4-(2-(2,6-dioxopiperidin-3-yl)-1,3-dioxoisoindolin-5-yl)morpholin-2-yl)methyl)azetidin-3-yl)(phenyl)methyl)-1H-pyrazol-4-yl)-5,5-difluoro-5a-methyl-1,4,4a,5,5a,6-hexahydrocyclopropa[f]indazole-3-carboxamide], for which half-maximal degradation (DC50) was put at 0.57 nM and the Dmax is 86%.

For the origin of these results see patent publication US20240279202A1 (NURIX THERAPEUTICS, INC., priority 2021, published 2024).
